Laboratory results published in ChEMBL document CHEMBL1201862, “PubChem BioAssay data set” (2004).
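Results reflect a 48-hour exposure of cells in 96-well plates to compound at five concentrations. At the GI50, growth is halved.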 Calls of active or inactive are those of the source. Rule as the data show it: active = GI50 up to about 1.1 µM and inactive = higher.

How the values were obtained:
Experiment in all cases: inhibition of tumour cell growth, NCI panel, 48 h
[1] = test system: CAKI-1
[2] = test system: CCRF-CEM
[3] = test system: DU-145
[4] = test system: EKVX
[5] = test system: HCT-116
[6] = test system: HL-60
[7] = test system: HOP-92
[8] = test system: HT-29
[9] = test system: MDA-N
[10] = test system: NCI-H23
[11] = test system: OVCAR-5
[12] = test system: OVCAR-8
[13] = test system: PC-3
[14] = test system: SF-539
[15] = test system: SK-MEL-28
[16] = test system: SK-MEL-5
[17] = test system: SK-OV-3
[18] = test system: T47D
[19] = test system: TK-10
[20] = test system: SK-MEL-2

Compound | GI50 [1] | GI50 [2] | GI50 [3] | GI50 [4] | GI50 [5] | GI50 [6] | GI50 [7] | GI50 [8] | GI50 [9] | GI50 [10] | GI50 [11] | GI50 [12] | GI50 [13] | GI50 [14] | GI50 [15] | GI50 [16] | GI50 [17] | GI50 [18] | GI50 [19] | GI50 [20]
C/C1=C/C(C)CC(C)OC(=O)C(C)NC(=O)C(Cc2ccc(O)c(I)c2)N(C)C(=O)CNC(=O)C(C)C1 (stereo not drawn) | < 0.01 µM (active) | < 0.01 µM (active) | 0.0643 µM (active) | 0.0443 µM (active) | < 0.01 µM (active) | < 0.01 µM (active) | < 0.0112 µM (active) | < 0.01 µM (active) | < 0.01 µM (active) | 0.409 µM (active) | 8.81 µM (inactive) | 0.0306 µM (active) | < 0.01 µM (active) | < 0.01 µM (active) | 0.105 µM (active) | < 0.01 µM (active) | < 0.01 µM (active) | 0.229 µM (active) | < 0.01 µM (active) | 
O=C(NNC(=O)c1ccccc1O)c1ccccc1O | < 0.0237 µM (active) | 0.0173 µM (active) | 0.0445 µM (active) | 1.17 µM (inactive) | 0.0446 µM (active) | 0.0528 µM (active) | 2.25 µM (inactive) | 6.71 µM (inactive) | 0.0247 µM (active) | 0.105 µM (active) | 0.5 µM (active) | 0.929 µM (active) |  | 0.033 µM (active) | 22.4 µM (inactive) | 0.607 µM (active) | 0.341 µM (active) | 0.0625 µM (active) | 5.97 µM (inactive) | 
CC(=O)OCC1OC(N2C(=O)NC(=O)C3C=C4CCCCC4=CC32)CC1OC(C)=O (stereo not drawn) |  |  | > 100 µM (inactive) | > 100 µM (inactive) | > 100 µM (inactive) | 72.8 µM (inactive) | > 100 µM (inactive) | > 100 µM (inactive) | > 100 µM (inactive) |  | > 100 µM (inactive) | > 100 µM (inactive) | > 100 µM (inactive) | > 100 µM (inactive) | > 100 µM (inactive) |  | > 100 µM (inactive) | > 100 µM (inactive) | > 100 µM (inactive) | > 100 µM (inactive)
Cc1cc(C[C@H]2O[C@@H]3OC(C)(C)O[C@@H]3[C@H]3OC(C)(C)O[C@H]32)c2ccccc2n1 | 56.6 µM (inactive) | 42.1 µM (inactive) | > 100 µM (inactive) | 79.6 µM (inactive) | 72.6 µM (inactive) | 27.5 µM (inactive) |  | > 100 µM (inactive) | 41.3 µM (inactive) | 52.7 µM (inactive) | > 100 µM (inactive) | 43.1 µM (inactive) | 40.1 µM (inactive) | > 100 µM (inactive) | > 100 µM (inactive) | 55.6 µM (inactive) | > 100 µM (inactive) | 63.5 µM (inactive) | > 100 µM (inactive) | 36 µM (inactive)
Cc1ccc(C(=O)/C=C2\Nc3ccccc3N=C2NC23CC4CC(CC(C4)C2)C3)cc1 | > 10 µM (inactive) | 1 µM (active) | > 10 µM (inactive) |  | > 10 µM (inactive) | > 10 µM (inactive) | > 10 µM (inactive) | > 10 µM (inactive) | > 10 µM (inactive) | > 10 µM (inactive) | > 10 µM (inactive) | > 10 µM (inactive) | > 10 µM (inactive) | > 10 µM (inactive) | > 10 µM (inactive) | > 10 µM (inactive) | > 10 µM (inactive) | > 10 µM (inactive) | > 10 µM (inactive) | 
COc1cc(C=O)ccc1O [VANILLIN] | > 100 µM (inactive) | > 100 µM (inactive) | > 100 µM (inactive) | > 100 µM (inactive) | > 100 µM (inactive) | > 100 µM (inactive) | > 100 µM (inactive) | > 100 µM (inactive) | > 100 µM (inactive) | > 100 µM (inactive) | > 100 µM (inactive) | > 100 µM (inactive) | > 100 µM (inactive) | > 100 µM (inactive) | > 100 µM (inactive) | > 100 µM (inactive) |  | > 100 µM (inactive) | > 100 µM (inactive) | 
O=P(O)(O)c1ccc(-c2ccc(I)cc2)cc1 | > 100 µM (inactive) | > 100 µM (inactive) | > 100 µM (inactive) | > 100 µM (inactive) | > 100 µM (inactive) | > 100 µM (inactive) |  | > 100 µM (inactive) | > 100 µM (inactive) | > 100 µM (inactive) | > 100 µM (inactive) | > 100 µM (inactive) | > 100 µM (inactive) | > 100 µM (inactive) | > 100 µM (inactive) | > 100 µM (inactive) | > 100 µM (inactive) | > 100 µM (inactive) | > 100 µM (inactive) | > 100 µM (inactive)
CN(NC(=O)c1ccco1)C1=NCCCCN1 |  | > 100 µM (inactive) | > 100 µM (inactive) | > 100 µM (inactive) | > 100 µM (inactive) | > 100 µM (inactive) | > 100 µM (inactive) | > 100 µM (inactive) | > 100 µM (inactive) | > 100 µM (inactive) | > 100 µM (inactive) | > 100 µM (inactive) | > 100 µM (inactive) | > 100 µM (inactive) | > 100 µM (inactive) | > 100 µM (inactive) | > 100 µM (inactive) | > 100 µM (inactive) | > 100 µM (inactive) | > 100 µM (inactive)
CCn1c(=O)c2nc(SC)sc2n(-c2ccccc2)c1=O |  | > 100 µM (inactive) | > 100 µM (inactive) |  | > 100 µM (inactive) | > 100 µM (inactive) | 54.1 µM (inactive) | > 100 µM (inactive) | > 100 µM (inactive) | > 100 µM (inactive) | > 100 µM (inactive) | > 100 µM (inactive) | > 100 µM (inactive) | > 100 µM (inactive) | > 100 µM (inactive) | > 100 µM (inactive) | > 100 µM (inactive) | > 100 µM (inactive) | > 100 µM (inactive) | > 100 µM (inactive)
CC1(C)[C@@H](Cn2cnc3c(Cl)nc(N)nc32)CC[C@@]1(C)CO | 28.2 µM (inactive) | 31.6 µM (inactive) | > 100 µM (inactive) | 58.9 µM (inactive) | 34.3 µM (inactive) |  | > 100 µM (inactive) |  | 32.4 µM (inactive) |  | > 100 µM (inactive) |  | 96.6 µM (inactive) | > 100 µM (inactive) | 43.5 µM (inactive) | 18.7 µM (inactive) | > 100 µM (inactive) | > 100 µM (inactive) | > 100 µM (inactive) | 18.5 µM (inactive)
C/C=C1/CN2CCC3(O)c4ccccc4N4C=C(C(=O)OC)C1CC2C43O (stereo not drawn) | > 100 µM (inactive) | > 100 µM (inactive) | > 100 µM (inactive) | > 100 µM (inactive) | > 100 µM (inactive) | > 100 µM (inactive) | > 100 µM (inactive) | > 100 µM (inactive) | > 100 µM (inactive) | > 100 µM (inactive) | > 100 µM (inactive) | > 100 µM (inactive) | > 100 µM (inactive) | > 100 µM (inactive) | > 100 µM (inactive) | > 100 µM (inactive) | > 100 µM (inactive) | > 100 µM (inactive) | > 100 µM (inactive) | 
CN(C)CC(C)(C)CN1c2ccccc2Sc2ccccc21 | 12.1 µM (inactive) |  | 12.4 µM (inactive) | 15.4 µM (inactive) | 13.8 µM (inactive) |  | 11.8 µM (inactive) | 10.8 µM (inactive) | 15 µM (inactive) | 16.4 µM (inactive) | 14.8 µM (inactive) | 15.3 µM (inactive) | 12.9 µM (inactive) | 19.7 µM (inactive) | 13.5 µM (inactive) | 16 µM (inactive) | 13.2 µM (inactive) | 14.2 µM (inactive) | 13.9 µM (inactive) | 15.4 µM (inactive)
COc1cc(/C=C2\C[C@H]3[C@@H]4CCc5cc(OCCN6CCCC6)ccc5[C@H]4CC[C@]3(C)C2=O)cc(OC)c1OC | 1.75 µM (inactive) |  | 1.87 µM (inactive) | 2.39 µM (inactive) | 1.54 µM (inactive) |  |  |  | 1.67 µM (inactive) | 2.41 µM (inactive) | 1.67 µM (inactive) | 1.63 µM (inactive) | 1.73 µM (inactive) | 1.61 µM (inactive) |  | 1.53 µM (inactive) | 2.7 µM (inactive) | 1.95 µM (inactive) | 2.53 µM (inactive) | 2.26 µM (inactive)
O=C1NC(=O)c2ccc([N+](=O)[O-])c3cccc1c23 | 23.5 µM (inactive) |  | 34 µM (inactive) | 28.3 µM (inactive) | 11.7 µM (inactive) |  | 20 µM (inactive) | 16 µM (inactive) | 12.4 µM (inactive) | 17.1 µM (inactive) | 18.3 µM (inactive) | 12.6 µM (inactive) | 17.4 µM (inactive) | 17.9 µM (inactive) | 20.2 µM (inactive) | 18.9 µM (inactive) | 23.1 µM (inactive) | 18.6 µM (inactive) | 19.6 µM (inactive) | 32.3 µM (inactive)
Nn1c(SCC(=O)NCc2ccccc2)nc2ccccc2c1=O | 84.1 µM (inactive) | 13.7 µM (inactive) | 65 µM (inactive) | 64.3 µM (inactive) | 29.4 µM (inactive) |  | 34.2 µM (inactive) | 45.4 µM (inactive) | 38.9 µM (inactive) | 82.8 µM (inactive) | > 100 µM (inactive) | 40.6 µM (inactive) | 54.7 µM (inactive) | > 100 µM (inactive) | 92.5 µM (inactive) | 41 µM (inactive) |  | > 100 µM (inactive) | 41.5 µM (inactive) | 76.7 µM (inactive)
